Experimental data as given in patent US20140303144A1, “COMPOUNDS AND METHODS OF TREATING HYPERTENSION” (Medivation Technologies, Inc., priority 2011, published 2014).

test system: SH-SY5Y cells; test: Cell viability assay (MTS reduction) against 4-Br-A23187 challenge; assay type: cell-based; details: Homo sapiens, SH-SY5Y, compound 10 nM, 4-Br-A23187 (2 μM) for 24 h, Control = 100, Vehicle = 0, read-out: Relative Cytoprotective capacity
Method: SH-SY5Y cells cultured in DMEM/F12 media supplemented with 10% FBS were seeded in 96-well microplates at 150,000 cells/cm^2. After 24 h, cells were depleted from FBS and kept in culture for 24 h before the experiment. A stock solution was prepared by dissolving the calcium ionophore 4-Br-A23187 (Calbiochem Cat. N^o 100107) in DMSO at 25 mM. Cells were then treated with 4-Br-A23187 (2 μM), hydrogen peroxide (300 μM) or the mitochondrial toxin rotenone (25 μM) in the presence of vehicle or Compound of the Invention for 24 h. Cell death was determined by measurements of LDH release according to the Cytotoxicity Detection KitPlus (Roche, Mannheim, Germany). Cell viability was determined by measuring the capacity of cells to metabolize MTS tetrazolium (MTS) according to the Cytotoxicity Detection KitPlus (Roche, Mannheim, Germany) and MTS reduction was assessed by the CellTiter 96® AQueous One Solution Cell Proliferation assay (Promega Corporation, Madison, Wis., USA). Compounds were screened at 10 nM, using DMSO as vehicle. Assay results for the experiments with Br-A23187 were presented as the MTS reduction capacity (cell viability) of untreated cells (control), 4-Br-A23187-treated cells (vehicle), and co-incubation of Br-A23187 with Compounds of the Invention treated cells and using […] (FCCP) at 10 μM for 30 min as a control. This assay assesses the ability of the test compounds to protect against cell death that was mediated by mitochondrial dysfunction. In the assay, the calcium ionophore 4-Br-A23187 was used to challenge the cells, causing calcium levels to rise in mitochondria, which leads to depolarization and cell death. Test compounds were assessed for their ability to prevent cell death in response to challenge with 4-Br-A23187.

Going from `Cc1ccc2c(c1)c1c3n2CC(C)(c2ccncc2)OC(C)CC3(C)CN(C)C1` (stereo not shown) [D9] to `Cc1ccc2c(c1)c1c3n2CC=C(c2ccc(F)cc2)CC3(C)CN(C)C1` (stereo not shown) [D5], the viability at 0.01 µM falls from 81.1% to 72.1%.

Going from `Cc1cc(C#Cc2ccc(C)nc2)c2[nH]c3c(c2c1)CN(C)CC3` [A6] to `Cc1cc(CCc2ccc(C)nc2)c2[nH]c3c(c2c1)CN(C)CC3` [A2], the viability at 0.01 µM falls from 27.6% to -4.41%.

`CN1CCc2[nH]c3c(N(C)Cc4ccccc4)cccc3c2C1` [A1] was tested, and the viability at 0.01 µM was -1.1%.

same assay, conditions: compound 10 nM, 4-Br-A23187 (2 μM) for 24 h, Control = 100, Vehicle = 0

Compared with `Cc1ccc2[nH]c3c(c2c1)CN(C)CC3(C)CCc1ccccc1` (stereo not shown) [C43], `Cc1ccc2[nH]c3c(c2c1)CN(C)CC3(C)CCc1ccc(C)nc1` (stereo not shown) [C46] is lower in “Relative Cytoprotective capacity” value: 9.618 for the first, −0.04527 for the second.

Compared with `Cc1ccc2c(c1)c1c(n2C)C(C)(CCc2ccc(C)nc2)CN(C)C1` (stereo not shown) [C45], `Cc1ccc2c(c1)c1c(n2C)C(C)(CCc2nc(-c3ccccc3)cs2)CN(C)C1` (stereo not shown) [C48] is higher in “Relative Cytoprotective capacity” value: 4.348 for the first, 52.14 for the second.

test system: New Zealand White rabbits; test: not given; details: conscious rabbits, intravenous cumulative doses, positive control

`Clc1cccc(Cl)c1N=C1NCCN1` [Clonidine] was tested, and the “maximum drop of arterial blood pressure” value was −6 mmHg.
